# Measured values: PubChem BioAssay (NCI)
#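 Interpolation was linear, between the two tested concentrations surrounding the appropriate level; five concentrations were tested over 48 hours in 96-well plates. TGI marks complete inhibition of growth.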
# Key:
# Assay in all cases: NCI tumour cell line growth inhibition, 48 h
# [1] = tested on: 786-0 renal
# [2] = tested on: A498 renal
# [3] = tested on: A549 NSCLC
# [4] = tested on: ACHN renal
# [5] = tested on: CAKI-1 renal
# [6] = tested on: COLO 205 colon
# [7] = tested on: DLD-1 colon
# [8] = tested on: DMS 114 small cell lung
# [9] = tested on: DMS 273 small cell lung
# [10] = tested on: EKVX NSCLC
# [11] = tested on: HCC-2998 colon
# [12] = tested on: HCT-116 colon
# [13] = tested on: HCT-15 colon
# [14] = tested on: HOP-18 NSCLC
# [15] = tested on: HOP-62 NSCLC
# [16] = tested on: HOP-92 NSCLC
# [17] = tested on: HT29 colon
# [18] = tested on: IGROV1 ovarian
# [19] = tested on: KM12 colon
# [20] = tested on: KM20L2 colon
# [21] = tested on: LOX IMVI melanoma
# [22] = tested on: LXFL 529 NSCLC
# [23] = tested on: M14 melanoma
# [24] = tested on: M19-MEL melanoma
# [25] = tested on: MALME-3M melanoma
# [26] = tested on: NCI-H226 lung
# [27] = tested on: NCI-H23 lung
# [28] = tested on: NCI-H460 lung
# [29] = tested on: OVCAR-3 ovarian
# [30] = tested on: OVCAR-4 ovarian
# [31] = tested on: OVCAR-5 ovarian
# [32] = tested on: OVCAR-8 ovarian
# [33] = tested on: RPMI-8226 leukemia
# [34] = tested on: RXF 393 renal
# [35] = tested on: RXF-631 renal
# [36] = tested on: SF-268 CNS
# [37] = tested on: SF-295 CNS
# [38] = tested on: SF-539 CNS
# [39] = tested on: SK-MEL-2 melanoma
# [40] = tested on: SK-MEL-28 melanoma
# [41] = tested on: SK-OV-3 ovarian
# [42] = tested on: SN12C renal
# [43] = tested on: SNB-19 CNS
# [44] = tested on: SNB-75 CNS
# [45] = tested on: SNB-78 CNS
# [46] = tested on: SW-620 colon
# [47] = tested on: TK-10 renal
# [48] = tested on: U251 CNS
# [49] = tested on: UACC-257 melanoma
# [50] = tested on: UACC-62 melanoma
# [51] = tested on: UO-31 renal
# [52] = tested on: XF 498 CNS
# [53] = tested on: CCRF-CEM leukemia
# [54] = tested on: HL-60(TB) leukemia
# [55] = tested on: K-562 leukemia
# [56] = tested on: NCI-H522 lung
# [57] = tested on: SK-MEL-5 melanoma
# [58] = tested on: SR leukemia
compound,measurement,setting,value
COC(=O)/C(=N\Nc1nc(=S)[nH]n1N)C(C#N)c1ccc(Cl)cc1 (configuration not stated),TGI,[1],> 100 µM
same,TGI,[2],> 100 µM
same,TGI,[3],> 100 µM
same,TGI,[4],> 100 µM
same,TGI,[5],> 100 µM
same,TGI,[6],> 100 µM
same,TGI,[7],> 100 µM
same,TGI,[8],> 100 µM
same,TGI,[9],> 100 µM
same,TGI,[10],> 100 µM
same,TGI,[11],> 100 µM
same,TGI,[12],> 100 µM
same,TGI,[13],> 100 µM
same,TGI,[14],> 100 µM
same,TGI,[15],> 100 µM
same,TGI,[16],> 100 µM
same,TGI,[17],> 100 µM
same,TGI,[18],> 100 µM
same,TGI,[19],> 100 µM
same,TGI,[20],> 100 µM
same,TGI,[21],> 100 µM
same,TGI,[22],> 100 µM
same,TGI,[23],> 100 µM
same,TGI,[24],> 100 µM
same,TGI,[25],> 100 µM
same,TGI,[26],> 100 µM
same,TGI,[27],> 100 µM
same,TGI,[28],> 100 µM
same,TGI,[29],> 100 µM
same,TGI,[30],> 100 µM
same,TGI,[31],> 100 µM
same,TGI,[32],> 100 µM
same,TGI,[33],> 100 µM
same,TGI,[34],> 100 µM
same,TGI,[35],> 100 µM
same,TGI,[36],> 100 µM
same,TGI,[37],> 100 µM
same,TGI,[38],> 100 µM
same,TGI,[39],> 100 µM
same,TGI,[40],> 100 µM
same,TGI,[41],> 100 µM
same,TGI,[42],> 100 µM
same,TGI,[43],> 100 µM
same,TGI,[44],> 100 µM
same,TGI,[45],> 100 µM
same,TGI,[46],> 100 µM
same,TGI,[47],> 100 µM
same,TGI,[48],> 100 µM
same,TGI,[49],> 100 µM
same,TGI,[50],> 100 µM
same,TGI,[51],> 100 µM
same,TGI,[52],> 100 µM
COc1ccc(C(=O)Nc2ccn(CCOC(=O)c3ccc(OC)cc3)c(=O)n2)cc1,TGI,[1],> 100 µM
same,TGI,[2],> 100 µM
same,TGI,[3],> 100 µM
same,TGI,[4],> 100 µM
same,TGI,[5],> 100 µM
same,TGI,[53],> 100 µM
same,TGI,[6],> 100 µM
same,TGI,[7],> 100 µM
same,TGI,[8],> 100 µM
same,TGI,[9],> 100 µM
same,TGI,[10],> 100 µM
same,TGI,[12],> 100 µM
same,TGI,[13],> 100 µM
same,TGI,[54],> 100 µM
same,TGI,[14],> 100 µM
same,TGI,[15],> 100 µM
same,TGI,[16],> 100 µM
same,TGI,[17],> 100 µM
same,TGI,[18],> 100 µM
same,TGI,[55],> 100 µM
same,TGI,[19],> 100 µM
same,TGI,[20],> 100 µM
same,TGI,[21],> 100 µM
same,TGI,[22],> 100 µM
same,TGI,[23],> 100 µM
same,TGI,[24],> 100 µM
same,TGI,[25],> 100 µM
same,TGI,[26],> 100 µM
same,TGI,[28],> 100 µM
same,TGI,[56],> 100 µM
same,TGI,[29],> 100 µM
same,TGI,[30],> 100 µM
same,TGI,[31],> 100 µM
same,TGI,[32],> 100 µM
same,TGI,[33],> 100 µM
same,TGI,[34],54.3 µM
same,TGI,[35],> 100 µM
same,TGI,[36],> 100 µM
same,TGI,[37],> 100 µM
same,TGI,[38],> 100 µM
same,TGI,[39],> 100 µM
same,TGI,[40],> 100 µM
same,TGI,[57],> 100 µM
same,TGI,[41],> 100 µM
same,TGI,[42],> 100 µM
same,TGI,[44],> 100 µM
same,TGI,[45],> 100 µM
same,TGI,[58],> 100 µM
same,TGI,[46],> 100 µM
same,TGI,[47],> 100 µM
same,TGI,[48],> 100 µM
same,TGI,[49],> 100 µM
same,TGI,[50],> 100 µM
same,TGI,[51],> 100 µM
same,TGI,[52],> 100 µM
